{"source": "paper PMC10484922", "about": "“Discovery of a selective and biologically active low-molecular weight antagonist of human interleukin-1β” (Nature Communications, 2023)", "key": {"[1]": {"test_system": "CHO IL-1R1 reporter cell line stimulated with IL-1β", "experiment": "NanoBiT reporter assay, CHO IL-1R1 cells, IL-1β driven", "type": "cell-based", "design": "average: scale not given here", "details": "for average: IL-1beta", "method": "(§1) Reporter cell system for NanoBiT assay\n(§2) CHO IL-36R or CHO IL-1R1 reporter cell lines, prepared internally (Klemens Ka u p ma n n ), based on tagged IL-1RAcP and Myd88 proteins using the NanoBiT complementation system, were seeded at a densi ty of 10’000 cells/well in 30 µL of OptiMEM + 0.1 % FCS medium using 384-well plates (white, TCT), for 24 hours.\n(§3) Before the treatment, the medium was removed, 20 µL of NanoGlo substrate, (#N2012, Pr o me g a ) were added to the wells. Following substrate addi ti on, 240 nL of compound were added to the wells using an ECH O dispenser device. Then, 3.76 µL of the ligand IL-36g (Novartis) at 200 ng/mL end concentration or recombinant IL-1b (Novartis) at 500 pg/mL end concentration were added to the mix. Luminescence was measured at 405 nm after 30 min incubation (Pherastar reader). […]"}, "[2]": {"test_system": "CHO IL-36R reporter cell line stimulated with IL-36γ", "experiment": "NanoBiT reporter assay, CHO IL-36R cells, IL-36γ driven", "type": "cell-based", "design": "average: scale not given here", "method": "as §1, §2, §3"}}, "note": "“Also recorded” adds a separate entry of the source."}
{"compound": "Cc1ccc2c(c1)NC(=O)[C@@]2(c1cn[nH]c1)c1cc(-c2ccc(C(=O)O)cc2C(=O)O)ccc1O", "note": "[Compound (S)-2]", "values": [{"measurement": "IL-1β-driven NanoBiT reporter activity", "setting": "[1]", "value": "inhibited the reporter activity driven"}, {"measurement": "average", "setting": "[1]; EXP1, conc 0.00610352 uM", "value": -2.539}, {"measurement": "average", "setting": "[1]; EXP1, conc 0.012207 uM", "value": 1.596}, {"measurement": "average", "setting": "[1]; EXP1, conc 0.0244141 uM", "value": -3.451}, {"measurement": "average", "setting": "[1]; EXP1, conc 0.0488281 uM", "value": 3.112}, {"measurement": "average", "setting": "[1]; EXP1, conc 0.0976562 uM", "value": 2.615}, {"measurement": "average", "setting": "[1]; EXP1, conc 0.195312 uM", "value": -0.4746}, {"measurement": "average", "setting": "[1]; EXP1, conc 0.390625 uM", "value": 9.543}, {"measurement": "average", "setting": "[1]; EXP1, conc 0.78125 uM", "value": 7.593}, {"measurement": "average", "setting": "[1]; EXP1, conc 1.5625 uM", "value": 13.469}, {"measurement": "average", "setting": "[1]; EXP1, conc 3.125 uM", "value": 26.7566}, {"measurement": "average", "setting": "[1]; EXP1, conc 6.25 uM", "value": 37.1219}, {"measurement": "average", "setting": "[1]; EXP1, conc 12.5 uM", "value": 46.91}, {"measurement": "average", "setting": "[1]; EXP1, conc 25 uM", "value": 52.2595}, {"measurement": "average", "setting": "[1]; EXP1, conc 50 uM", "value": 56.8016}, {"measurement": "average", "setting": "[1]; EXP1, conc 100 uM", "value": 68.8694}, {"measurement": "average", "setting": "[1]; EXP2, conc 0.00610352 uM", "value": -2.716}, {"measurement": "average", "setting": "[1]; EXP2, conc 0.012207 uM", "value": 3.9057}, {"measurement": "average", "setting": "[1]; EXP2, conc 0.0244141 uM", "value": -3.335}, {"measurement": "average", "setting": "[1]; EXP2, conc 0.0488281 uM", "value": 6.501}, {"measurement": "average", "setting": "[1]; EXP2, conc 0.0976562 uM", "value": 5.016}, {"measurement": "average", "setting": "[1]; EXP2, conc 0.195312 uM", "value": 1.522}, {"measurement": "average", "setting": "[1]; EXP2, conc 0.390625 uM", "value": 11.9124}, {"measurement": "average", "setting": "[1]; EXP2, conc 0.78125 uM", "value": 10.8854}, {"measurement": "average", "setting": "[1]; EXP2, conc 1.5625 uM", "value": 17.5198}, {"measurement": "average", "setting": "[1]; EXP2, conc 3.125 uM", "value": 31.5581}, {"measurement": "average", "setting": "[1]; EXP2, conc 6.25 uM", "value": 41.289}, {"measurement": "average", "setting": "[1]; EXP2, conc 12.5 uM", "value": 51.7241}, {"measurement": "average", "setting": "[1]; EXP2, conc 25 uM", "value": 56.0031}, {"measurement": "average", "setting": "[1]; EXP2, conc 50 uM", "value": 59.3287}, {"measurement": "average", "setting": "[1]; EXP2, conc 100 uM", "value": 71.2739}, {"measurement": "average", "setting": "[1]; EXP3, conc 0.00610352 uM", "value": 1.19}, {"measurement": "average", "setting": "[1]; EXP3, conc 0.012207 uM", "value": 3.77}, {"measurement": "average", "setting": "[1]; EXP3, conc 0.0244141 uM", "value": 3.912}, {"measurement": "average", "setting": "[1]; EXP3, conc 0.0488281 uM", "value": 4.68}, {"measurement": "average", "setting": "[1]; EXP3, conc 0.0976562 uM", "value": -1.021}, {"measurement": "average", "setting": "[1]; EXP3, conc 0.195312 uM", "value": 3.354}, {"measurement": "average", "setting": "[1]; EXP3, conc 0.390625 uM", "value": 4.389}, {"measurement": "average", "setting": "[1]; EXP3, conc 0.78125 uM", "value": 9.349}, {"measurement": "average", "setting": "[1]; EXP3, conc 1.5625 uM", "value": 13.3994}, {"measurement": "average", "setting": "[1]; EXP3, conc 3.125 uM", "value": 22.0107}, {"measurement": "average", "setting": "[1]; EXP3, conc 6.25 uM", "value": 30.3621}, {"measurement": "average", "setting": "[1]; EXP3, conc 12.5 uM", "value": 43.476}, {"measurement": "average", "setting": "[1]; EXP3, conc 25 uM", "value": 49.8685}, {"measurement": "average", "setting": "[1]; EXP3, conc 50 uM", "value": 57.8931}, {"measurement": "average", "setting": "[1]; EXP3, conc 100 uM", "value": 64.0514}, {"measurement": "IL-36γ-driven NanoBiT reporter activity", "setting": "[2]", "value": "without effect on IL-36g-driven activity; also recorded: no inhibitory activity"}, {"measurement": "average", "setting": "[2]; IL-36, EXP1, conc 0.00610352 uM", "value": -8.032}, {"measurement": "average", "setting": "[2]; IL-36, EXP1, conc 0.012207 uM", "value": -2.7959}, {"measurement": "average", "setting": "[2]; IL-36, EXP1, conc 0.0244141 uM", "value": -4.066}, {"measurement": "average", "setting": "[2]; IL-36, EXP1, conc 0.0488281 uM", "value": -1.337}, {"measurement": "average", "setting": "[2]; IL-36, EXP1, conc 0.0976562 uM", "value": -10.0933}, {"measurement": "average", "setting": "[2]; IL-36, EXP1, conc 0.195312 uM", "value": -6.363}, {"measurement": "average", "setting": "[2]; IL-36, EXP1, conc 0.390625 uM", "value": -11.0347}, {"measurement": "average", "setting": "[2]; IL-36, EXP1, conc 0.78125 uM", "value": -4.52}, {"measurement": "average", "setting": "[2]; IL-36, EXP1, conc 1.5625 uM", "value": -4.793}, {"measurement": "average", "setting": "[2]; IL-36, EXP1, conc 3.125 uM", "value": -8.376}, {"measurement": "average", "setting": "[2]; IL-36, EXP1, conc 6.25 uM", "value": -1.775}, {"measurement": "average", "setting": "[2]; IL-36, EXP1, conc 12.5 uM", "value": -2.393}, {"measurement": "average", "setting": "[2]; IL-36, EXP1, conc 25 uM", "value": -11.2956}, {"measurement": "average", "setting": "[2]; IL-36, EXP1, conc 50 uM", "value": -8.608}, {"measurement": "average", "setting": "[2]; IL-36, EXP1, conc 100 uM", "value": 2.894}, {"measurement": "average", "setting": "[2]; IL-36, EXP2, conc 0.00610352 uM", "value": -0.8565}, {"measurement": "average", "setting": "[2]; IL-36, EXP2, conc 0.012207 uM", "value": -0.8771}, {"measurement": "average", "setting": "[2]; IL-36, EXP2, conc 0.0244141 uM", "value": 16.4182}, {"measurement": "average", "setting": "[2]; IL-36, EXP2, conc 0.0488281 uM", "value": -7.751}, {"measurement": "average", "setting": "[2]; IL-36, EXP2, conc 0.0976562 uM", "value": 10.3597}, {"measurement": "average", "setting": "[2]; IL-36, EXP2, conc 0.195312 uM", "value": 5.839}, {"measurement": "average", "setting": "[2]; IL-36, EXP2, conc 0.390625 uM", "value": 4.392}, {"measurement": "average", "setting": "[2]; IL-36, EXP2, conc 0.78125 uM", "value": 8.396}, {"measurement": "average", "setting": "[2]; IL-36, EXP2, conc 1.5625 uM", "value": 12.4114}, {"measurement": "average", "setting": "[2]; IL-36, EXP2, conc 3.125 uM", "value": 6.063}, {"measurement": "average", "setting": "[2]; IL-36, EXP2, conc 6.25 uM", "value": 0.8781}, {"measurement": "average", "setting": "[2]; IL-36, EXP2, conc 12.5 uM", "value": 10.8339}, {"measurement": "average", "setting": "[2]; IL-36, EXP2, conc 25 uM", "value": 7.445}, {"measurement": "average", "setting": "[2]; IL-36, EXP2, conc 50 uM", "value": 10.4408}, {"measurement": "average", "setting": "[2]; IL-36, EXP2, conc 100 uM", "value": 12.6091}, {"measurement": "average", "setting": "[2]; IL-36, EXP3, conc 0.00610352 uM", "value": 2.096}, {"measurement": "average", "setting": "[2]; IL-36, EXP3, conc 0.012207 uM", "value": -6.441}, {"measurement": "average", "setting": "[2]; IL-36, EXP3, conc 0.0244141 uM", "value": 4.8088}, {"measurement": "average", "setting": "[2]; IL-36, EXP3, conc 0.0488281 uM", "value": -5.951}, {"measurement": "average", "setting": "[2]; IL-36, EXP3, conc 0.0976562 uM", "value": -4.784}, {"measurement": "average", "setting": "[2]; IL-36, EXP3, conc 0.195312 uM", "value": -4.89}, {"measurement": "average", "setting": "[2]; IL-36, EXP3, conc 0.390625 uM", "value": -47.4888}, {"measurement": "average", "setting": "[2]; IL-36, EXP3, conc 0.78125 uM", "value": -7.151}, {"measurement": "average", "setting": "[2]; IL-36, EXP3, conc 1.5625 uM", "value": -6.215}, {"measurement": "average", "setting": "[2]; IL-36, EXP3, conc 3.125 uM", "value": -8.634}, {"measurement": "average", "setting": "[2]; IL-36, EXP3, conc 6.25 uM", "value": -10.5486}, {"measurement": "average", "setting": "[2]; IL-36, EXP3, conc 12.5 uM", "value": -5.26}, {"measurement": "average", "setting": "[2]; IL-36, EXP3, conc 25 uM", "value": -17.1151}, {"measurement": "average", "setting": "[2]; IL-36, EXP3, conc 50 uM", "value": -4.192}, {"measurement": "average", "setting": "[2]; IL-36, EXP3, conc 100 uM", "value": -4.987}]}
